Laboratory results as given in patent publication US20230285570A1, “THERAPEUTICALLY USEFUL CURE-PRO MOLECULES FOR E3 LIGASE MEDIATED DEGRADATION OF PROTEINS, AND METHODS OF MAKING AND USING THEM” (CORNELL UNIVERSITY, priority 2020, published 2023).
“Also recorded” adds a separate entry of the source.

Columns and labels:
BRD4 = BRD4 (Homo sapiens, UniProt O60885); assay: CURE-PRO-mediated BRD4 degradation in MCF7 cells, WES (ProteinSimple); type: cell-based; design: endogenous in cells
Description: WES Simple analysis was performed on WES system (ProteinSimple-Biotechne) according to the manufacturer's instructions. Total protein concentrations of cell lysates were determined by the Pierce BCA kit (Thermo Fisher). 3 μL of 0.3 μg/μL of the protein lysate was loaded onto a 12- to 230-kDa WES assay plate (ProteinSimple) where 300 nL sample was withdrawn through a capillary, subjected to electrophoretic separation of proteins by size, and followed by the simultaneous, HRP-based detection of proteins using the Anti-Rabbit Detection Module (Proteinsimple: #DM-001). The electropherograms were checked then the automatic peak detection was manually corrected if it was required.
MCF7 cells (3×10^6) were treated for 4-24 hours continually (FIG. 72), or treated for 4 h, washed and incubated for a further 4-24 h with the compounds solubilized in DMSO. Compounds were added at 10 μM each. Cells were washed, lysed, and clarified by centrifugation. The total protein concentration was quantified by the BCA method (ThermoFisher Sciences). Standardized protein samples were electrophoresed and imaged as described in the WES Proteinsimple section above. FIG. 69 depicts the CURE-PRO-mediated BRD4 degradation for the BRD-E50 monomer, and VHL ligand, 8305.
MCF7 cells (3×10^6) were treated for 24 hours with the compounds solubilized in DMSO. CURE-PRO monomers were added at 10 μM each and the proteasomal inhibitors at 1 μM. Standardized protein samples were electrophoresed and imaged as described in the WES Proteinsimple section above. FIGS. 73 and 75 depicts the dependence of the proteasome for CURE-PRO-mediated BRD4 degradation.
MCF7 cells (3×10^6) were treated for 24 hours with the compounds solubilized in DMSO. CURE-PRO monomers were added at 10 μM. FIG. 74 depicts the CURE-PRO-mediated BRD4 degradation for the BRD-E50 monomer, and VHL ligand, 8305 combined in a 1:1 ratio after 24 h.

MV-4-11 cells = assay: CellTiter-Glo cell viability, MV-4-11 cells; type: cell-based; settings: cotreated 1:1 with each of CRBN ligands 8046, 8047 and 8066, MV-4-11, 72 h, 10 nM-100 μM
Method in brief: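 Viability by CellTiter-Glo luminescence. One protocol: 5×10^4 MV-4-11 cells, 24 h, compounds at 1 nM-100 μM each; other: 1×10^4 cells, 72 h, 10 nM-100 μM each. BRD ligands combined 1:1 with CRBN ligands; dose-response curves fitted.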

SLC19A1 = assay: RT-PCR of c-MYC downstream target gene SLC19A1 in HeLa cells; type: cell-based, Human; settings: 10 μM each, 24 h
Description: The suppression of the expression of the downstream c-MYC target, SLC19A1, was measured by RT-PCR using Power SYBR® Green Cells-to-Ct™ Kit (Life Technologies). Adherent cells were plated on 96 well plates at 5,000 cells per well were treated for 24 h with monomer compounds and compounds capable of reversible interactions (1 nM-100 μM). Cells were subsequently washed in ice-cold PBS processed according to the manufacturer's instructions. Quantitative real-time PCR was performed using a ViiA™ 7 Real-time PCR System (Applied Biosystems, Foster City, Calif., USA). GAPDH and ACTB served as internal controls.
HeLa cells (1×10^4) were treated for 24 hours in 96 well plates with the compounds solubilized in DMSO. Compounds were added at 10 μM each and RNA expression measured by the Cells-to Ct method described above (Thermofisher).

BRD2 = molecular target: T1, BRD2 (Homo sapiens, UniProt P25440); assay: BRD protein family degradation in HCT116 cells, Western blot: BRD2; type: cell-based; settings: 1:1 with MDM2 ligands 8310 and 8312 (each), HCT116, 24 h, 100 nM-10 μM
T1 construct: endogenous in cells; host or cells: HCT116
T1 sequence (P25440 whole entry): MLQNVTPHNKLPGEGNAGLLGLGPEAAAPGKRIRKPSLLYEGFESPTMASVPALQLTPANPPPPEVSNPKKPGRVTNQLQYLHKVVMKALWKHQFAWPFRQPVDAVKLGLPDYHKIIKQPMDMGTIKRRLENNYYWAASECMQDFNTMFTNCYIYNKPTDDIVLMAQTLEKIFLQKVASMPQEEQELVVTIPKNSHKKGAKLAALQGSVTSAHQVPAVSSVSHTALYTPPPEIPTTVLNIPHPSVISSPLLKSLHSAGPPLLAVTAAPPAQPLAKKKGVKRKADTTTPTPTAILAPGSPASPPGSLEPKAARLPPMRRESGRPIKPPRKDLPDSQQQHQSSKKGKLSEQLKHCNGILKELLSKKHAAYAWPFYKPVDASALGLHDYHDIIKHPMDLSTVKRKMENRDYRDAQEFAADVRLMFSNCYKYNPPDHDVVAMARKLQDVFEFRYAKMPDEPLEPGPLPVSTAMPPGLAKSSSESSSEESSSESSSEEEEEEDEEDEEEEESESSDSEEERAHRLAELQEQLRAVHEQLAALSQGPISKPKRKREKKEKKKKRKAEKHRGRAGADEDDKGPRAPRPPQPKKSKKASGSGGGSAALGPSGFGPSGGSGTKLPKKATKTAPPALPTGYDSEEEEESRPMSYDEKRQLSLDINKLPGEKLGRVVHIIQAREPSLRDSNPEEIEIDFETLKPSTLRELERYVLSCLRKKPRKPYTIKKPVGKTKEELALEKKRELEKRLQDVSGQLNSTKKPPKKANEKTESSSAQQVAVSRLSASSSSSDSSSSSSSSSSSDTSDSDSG
Description: Namalwa, Ramosm HeLa, MCF7, or HT29 HCT116 cells (2.5-3×10^6) were treated for 24 hours with the indicated compounds solubilized in DMSO. The cells were washed in ice-cold PBS and were then lysed in RIPA lysis buffer (150 mM NaCl, 5 mM EDTA, 1% NP-40, 0.5% sodium deoxycholate, 0.1% SDS, 50 mM Tris, pH 8.0.) with Roche protease inhibitor complete cocktail and phosphatase inhibitors (10 mM sodium fluoride, 10 mM sodium pyrophosphate, 1 mM sodium orthovanadate and 20 mM β-glycerophosphate). The total protein concentrations were determined by Bradford Protein Assay (Pierce) and 10-20 μg of protein was loaded onto 4-15% Tris-Glycine gradient gels (Biorad). After standard gel electrophoresis, the separated proteins were transferred to PVDF membrane by wet transfer. The immunoblots were then blocked for 1 hour in 5% skim milk in TBST or 5% BSA in TBST, according to manufacturer's instructions, before an overnight incubation at 4° C. with indicated antibodies and membranes. […] Signal was detected with ECL Western Blotting Substrate (Pierce) and X-ray film processed with a Konica SRX-101 X-ray film processor or captured by Bio-Rad's Chemidoc Imaging system. […]

| SMILES | BRD4 degradation with proteasome inhibitors (BRD4; 1:1 with 8305 at 10 μM, pre-incubation with MG-132 and Carfilzomib 1 μM, MCF7) | BRD4 degradation (BRD4; 1:1 with VHL ligand 8305, MCF7, 10 μM each, 4-24 h) | BRD4 degradation (BRD4; co-incubated with VHL ligand 8304, MCF7, 10 μM each) | loss of cellular viability (toxicity) versus monomers alone (MV-4-11 cells) | suppression of SLC19A1 expression (SLC19A1; combined with MDM2 ligand 8310, HeLa) | suppression of SLC19A1 expression (SLC19A1; combined with MDM2 ligand 8312, HeLa) | BRD2 degradation (BRD2) |
| --- | --- | --- | --- | --- | --- | --- | --- |
| CCNC(=O)C[C@@H]1N=C(c2ccc(Cl)cc2)c2cc(OCCCCC(=O)Nc3cccc(B(O)O)c3)ccc2-n2c(C)nnc21 [BRD-E20, (3-(5-(((4S)-6-(4-chlorophenyl)-4-(2-(ethylamino)-2-oxoethyl)-1-methyl-4H-benzo[f][1,2,4]triazolo[4,3-a][1,4]diazepin-8-yl)oxy)pentanamido)phenyl)boronic acid] | inhibited by the pre-incubation with MG-132 and Carfilzomib; also recorded: inhibited with the proteasome inhibitors, MG-132 and Carfilzomib | caused BRD4 degradation; also recorded: marked BRD4 degradation | failed to induce BRD4 degradation | reduced viability; also recorded: increased toxicity | – | – | – |
| CCNC(=O)C[C@@H]1N=C(c2ccc(Cl)cc2)c2cc(OCCOCCNC(=O)c3cccc(O)c3O)ccc2-n2c(C)nnc21 [BRD-N39, N-(2-(2-(((4S)-6-(4-chlorophenyl)-4-(2-(ethylamino)-2-oxoethyl)-1-methyl-4H-benzo[f][1,2,4]triazolo[4,3-a][1,4]diazepin-8-yl)oxy)ethoxy)ethyl)-2,3-dihydroxybenzamide] | – | – | – | – | suppression to levels comparable to that of JQ1 treatment | Complete suppression; also recorded: completely suppressed | BRD2 to a lesser extent; also recorded: Degradation is evident |
